Laboratory results reported in patent US11776661B2, “Determination of MAPK-AP-1 pathway activity using unique combination of target genes” (InnoSIGN B.V., priority 2017, dated 2023).

Experiments:
[1] = tested on: MAPK-AP-1 cellular signaling pathway; experiment: MAPK-AP-1 pathway activity prediction (Bayesian network model, 24 target genes list) on GSE28878, HepG2 cell line; assay type: cell-based, human; details: HepG2, 500 nM TPA, 12 h, 24 h, 48 h, vs DMSO control vehicle
Procedure: A HepG2 cell line was treated with DMSO as control vehicle (group 1: 12 h, all 3 samples are part of the calibration data set; group 3: 24 h, 2 samples are part of the calibration data set; group 5: 48 h, 1 sample is part of the calibration data set) or 500 nM TPA (group 2: 12 h, 1 sample is part of the calibration data set; group 4: 24 h, all 3 samples are part of the calibration data set; group 6: 48 h). In the diagram, the vertical axis indicates the odds (on a log 2 scale) that the TF element is “present” resp. “absent”, which corresponds to the MAPK-AP-1 cellular signaling pathway being active resp. passive, wherein values above the horizontal axis correspond to the TF element being more likely “present”/active and values below the horizontal axis indicate that the odds that the TF element is “absent”/passive are larger than the odds that it is “present”/active.

[2] = tested on: MAPK-AP-1 cellular signaling pathway; experiment: MAPK-AP-1 pathway activity prediction (24 target genes list) on GSE45417, U937 (histiocytic lymphoma) cell line; assay type: cell-based; details: U937, 100 nM TPA vs 0.1% DMSO
Procedure: The U937 (histiocytic lymphoma) cell line was treated with 0.1% DMSO as control vehicle (group 1: all 3 samples are part of the calibration data set; and group 3), or 100 nM TPA (group 2: all 3 samples are part of the calibration data set; and group 4). Additionally, ZXDC1 knockdown was induced using doxycycline (groups 3 and 4). In the diagram, the vertical axis indicates the odds (on a log 2 scale) that the TF element is “present” resp. “absent”, which corresponds to the MAPK-AP-1 cellular signaling pathway being active resp. passive, wherein values above the horizontal axis correspond to the TF element being more likely “present”/active and values below the horizontal axis indicate that the odds that the TF element is “absent”/passive are larger than the odds that it is “present”/active.

[3] = tested on: MAPK-AP-1 cellular signaling pathway; experiment: MAPK-AP-1 pathway activity prediction (24 target genes list) on GSE66853, U937 cells; assay type: cell-based, human; details: 50 ng/ml TPA for 24 h, compared to Ethanol
Procedure: U937 cells were treated with Ethanol as control vehicle (group 1: all 3 samples are part of the calibration data set; and group 3) or 50 ng/ml TPA (group 2: 1 sample is part of the calibration data set; and group 4) for 24 h. U937 cells were either transduced with an empty vector (groups 1 and 2) or with an EVI1 expression vector (groups 3 and 4). In the diagram, the vertical axis indicates the odds (on a log 2 scale) that the TF element is “present” resp. “absent”, which corresponds to the MAPK-AP-1 cellular signaling pathway being active resp. passive, wherein values above the horizontal axis correspond to the TF element being more likely “present”/active and values below the horizontal axis indicate that the odds that the TF element is “absent”/passive are larger than the odds that it is “present”/active. […] Although it is known that the FOS and JUN promoter region contains EVI1 binding sites it seems that this effect on AP-1 activity is very small compared to the addition of 50 ng/ml TPA.

[4] = tested on: MAPK-AP-1 cellular signaling pathway; experiment: MAPK-AP-1 pathway activity prediction (24 target genes list) on E-MEXP-2213, K562 (erythroleukemia) cells; assay type: cell-based; details: K562, 10 nM TPA vs not treated
Procedure: K562 (erythroleukemia) cells were either not treated (group 1) or treated with 10 nM TPA (group 2). In the diagram, the vertical axis indicates the odds (on a log 2 scale) that the TF element is “present” resp. “absent”, which corresponds to the MAPK-AP-1 cellular signaling pathway being active resp. passive, wherein values above the horizontal axis correspond to the TF element being more likely “present”/active and values below the horizontal axis indicate that the odds that the TF element is “absent”/passive are larger than the odds that it is “present”/active.

[5] = tested on: MAPK-AP-1 cellular signaling pathway; experiment: MAPK-AP-1 pathway activity prediction (11 target gene shortlist) on GSE40117, hES-Hep cells; assay type: cell-based, Human; details: 0.11 μM TPA vs control conditions
Procedure: (§1) Human embryonic stem cell derived hepatocyte like cells (hES-Hep) were treated with 0.11 μM TPA (group 2: all 3 samples are part of the calibration data set) and compared to control conditions (group 1). HepG2 (a human liver cancer cell line) were treated with 0.0001 μM TPA (group 4: 3 samples are part of the calibration data set) and compared to control conditions (group 3: 1 sample is part of the calibration data set). In the diagram, the vertical axis indicates the odds (on a log 2 scale) that the TF element is “present” resp. “absent”, which corresponds to the MAPK-AP-1 cellular signaling pathway being active resp. passive, wherein values above the horizontal axis correspond to the TF element being more likely “present”/active and values below the horizontal axis indicate that the odds that the TF element is “absent”/passive are larger than the odds that it is “present”/active.

[6] = tested on: MAPK-AP-1 cellular signaling pathway; experiment: MAPK-AP-1 pathway activity prediction (11 target gene shortlist) on GSE40117, HepG2; assay type: cell-based, human; details: HepG2, 0.0001 μM TPA vs control conditions
Procedure: as §1

[7] = tested on: MAPK-AP-1 cellular signaling pathway; experiment: MAPK-AP-1 pathway activity prediction (11 target gene shortlist) on GSE58235, HepG2 (Human Hepatoma) cell line; assay type: cell-based; details: compared to DMSO and Ethanol
Procedure: The HepG2 (Human Hepatoma) cell line was treated with 0.5% DMSO (group 1: all 3 samples are part of the calibration data set; group 4: 1 sample is part of the calibration data set), 0.5% Ethanol (groups 2 and 5) or 500 nM TPA (group 3: all 3 samples are part of the calibration data set; and group 6) for 24 hours (groups 1 to 3) or 48 hours (groups 4 to 6). In the diagram, the vertical axis indicates the odds (on a log 2 scale) that the TF element is “present” resp. “absent”, which corresponds to the MAPK-AP-1 cellular signaling pathway being active resp. passive, wherein values above the horizontal axis correspond to the TF element being more likely “present”/active and values below the horizontal axis indicate that the odds that the TF element is “absent”/passive are larger than the odds that it is “present”/active.

[8] = tested on: MAPK-AP-1 cellular signaling pathway; experiment: MAPK-AP-1 pathway activity prediction (11 target gene shortlist) on E-MEXP-2573, K562 (erythroleukemia) cells; assay type: cell-based; details: 100 nM TPA for a further 48 h
Procedure: RNA was extracted from K562 (erythroleukemia) cells after 24 h (groups 1 and 3) or cells were treated with 100 nM TPA for a further 48 h (groups 2 and 4). K562 were either transfected with a control empty vector (groups 1 and 2) or a BASP1-containing vector (groups 3 and 4). In the diagram, the vertical axis indicates the odds (on a log 2 scale) that the TF element is “present” resp. “absent”, which corresponds to the MAPK-AP-1 cellular signaling pathway being active resp. passive, wherein values above the horizontal axis correspond to the TF element being more likely “present”/active and values below the horizontal axis indicate that the odds that the TF element is “absent”/passive are larger than the odds that it is “present”/active.

Measured: AP-1 activity (log2 odds that TF element is present) after exposure

CCCCCCCCCCCCCC(=O)O[C@@H]1[C@@H](C)[C@@]2(O)[C@@H](C=C(CO)C[C@]3(O)C(=O)C(C)=C[C@@H]23)[C@@H]2C(C)(C)[C@]12OC(C)=O [TPA, 12-O-Tetradecanoylphorbol-13-acetate]
large increase: [1] | [2]; ZXDC1 knockdown induced using doxycycline | [2]; without ZXDC1 knockdown | [3]; U937 transduced with EVI1 expression vector | [3]; U937 transduced with empty vector | [4] | [5] | [6] | [7]; HepG2, 500 nM TPA for 24 hours | [7]; HepG2, 500 nM TPA for 48 hours | [8]; K562 transfected with BASP1-containing vector | [8]; K562 transfected with control empty vector
